Key:
[1] = target: T1, Human immunodeficiency virus type 1 reverse transcriptase (Human immunodeficiency virus 1, UniProt Q72547); experiment: Inhibition of HIV1 wild type reverse transcriptase
[2] = target: T2, Human immunodeficiency virus type 1 reverse transcriptase (Human immunodeficiency virus 1, UniProt Q72547, L100I); experiment: Inhibition of HIV1 reverse transcriptase L100I mutant
[3] = target: T3, Human immunodeficiency virus type 1 reverse transcriptase (Human immunodeficiency virus 1, UniProt Q72547, V179D); experiment: Inhibition of HIV1 reverse transcriptase V179D mutant
[4] = target: T4, Human immunodeficiency virus type 1 reverse transcriptase (Human immunodeficiency virus 1, UniProt Q72547, K103N); experiment: Inhibition of HIV1 reverse transcriptase K103N mutant
[5] = target: T2, Human immunodeficiency virus type 1 reverse transcriptase; experiment: Inhibition of HIV1 free reverse transcriptase L100I mutant
[6] = target: T4, Human immunodeficiency virus type 1 reverse transcriptase; experiment: Inhibition of HIV1 reverse transcriptase K103N mutant/poly(rA)/oligo(dT) DNA binary complex
[7] = target: T3, Human immunodeficiency virus type 1 reverse transcriptase; experiment: Inhibition of HIV1 reverse transcriptase V179D mutant/poly(rA)/oligo(dT) DNA binary complex
[8] = target: T1, Human immunodeficiency virus type 1 reverse transcriptase; experiment: Inhibition of HIV1 wild type reverse transcriptase/poly(rA)/oligo(dT) DNA/dTTP ternary complex
[9] = target: T1, Human immunodeficiency virus type 1 reverse transcriptase; experiment: Inhibition of HIV1 wild type reverse transcriptase/poly(rA)/oligo(dT) DNA binary complex
[10] = target: T2, Human immunodeficiency virus type 1 reverse transcriptase; experiment: Inhibition of HIV1 reverse transcriptase L100I mutant/poly(rA)/oligo(dT) DNA/dTTP ternary complex
[11] = target: T3, Human immunodeficiency virus type 1 reverse transcriptase; experiment: Inhibition of HIV1 reverse transcriptase V179D mutant/poly(rA)/oligo(dT) DNA/dTTP ternary complex
[12] = target: T1, Human immunodeficiency virus type 1 reverse transcriptase; experiment: Inhibition of HIV1 free wild type reverse transcriptase
[13] = target: T4, Human immunodeficiency virus type 1 reverse transcriptase; experiment: Inhibition of HIV1 free reverse transcriptase K103N mutant
[14] = target: T3, Human immunodeficiency virus type 1 reverse transcriptase; experiment: Inhibition of HIV1 free reverse transcriptase V179D mutant
[15] = target: T4, Human immunodeficiency virus type 1 reverse transcriptase; experiment: Inhibition of HIV1 reverse transcriptase K103N mutant/poly(rA)/oligo(dT) DNA/dTTP ternary complex
[16] = target: T2, Human immunodeficiency virus type 1 reverse transcriptase; experiment: Inhibition of HIV1 reverse transcriptase L100I mutant/poly(rA)/oligo(dT) DNA binary complex

| Structure (SMILES) | IC50 [1] | IC50 [2] | IC50 [3] | IC50 [4] | Ki [5] | Ki [6] | Ki [7] | Ki [8] | Ki [9] | Ki [10] | Ki [11] | Ki [12] | Ki [13] | Ki [14] | Ki [15] | Ki [16] |
| --- | --- | --- | --- | --- | --- | --- | --- | --- | --- | --- | --- | --- | --- | --- | --- | --- |
| CCC1(c2ccc(CSc3ccccc3)cc2)Oc2ccccc2-n2cccc2C1=O (racemic) | 60 nM | 990 nM | 150 nM | 250 nM | – | – | – | – | – | – | – | – | – | – | – | – |
| CCC1(c2ccc(CSc3ccc(F)cc3)cc2)Oc2ccccc2-n2cccc2C1=O (racemic) | 250 nM | > 400000 nM | > 40000 nM | 3350 nM | – | – | – | – | – | – | – | – | – | – | – | – |
| CCC1(c2ccc(CSc3ccc(Br)cc3)cc2)Oc2ccccc2-n2cccc2C1=O (racemic) | 60 nM | > 400000 nM | 290 nM | 1160 nM | – | – | – | – | – | – | – | – | – | – | – | – |
| CCC1(c2ccc(CSc3c(Cl)cccc3Cl)cc2)Oc2ccccc2-n2cccc2C1=O (racemic) | 7360 nM | > 400000 nM | > 40000 nM | > 400000 nM | – | – | – | – | – | – | – | – | – | – | – | – |
| CCC1(c2ccc(CSc3ccc(F)cc3Cl)cc2)Oc2ccccc2-n2cccc2C1=O (racemic) | 610 nM | > 400000 nM | > 40000 nM | 20500 nM | – | – | – | – | – | – | – | – | – | – | – | – |
| CCC1(c2ccc(COc3ccccc3)cc2)Oc2ccccc2-n2cccc2C1=O (racemic) | 150 nM | 200 nM | – | 400 nM | – | – | – | – | – | – | – | – | – | – | – | – |
| CCC1(c2ccc(COc3cccc(Cl)c3)cc2)Oc2ccccc2-n2cccc2C1=O (racemic) | 100 nM | 250 nM | 300 nM | 300 nM | – | – | – | – | – | – | – | – | – | – | – | – |
| CCC1(c2ccc(CSc3ccccc3)cc2)Oc2ccccc2-n2cccc2C1=O (single isomer, unassigned; (+)) | – | – | – | – | 700 nM | 1350 nM | 780 nM | 100 nM | 420 nM | 510 nM | 540 nM | 420 nM | 1350 nM | 780 nM | 780 nM | 700 nM |
| CCC1(c2ccc(CSc3ccc(Br)cc3)cc2)Oc2ccccc2-n2cccc2C1=O (single isomer, unassigned; (+)) | – | – | – | – | 1200 nM | 2210 nM | 620 nM | 110 nM | 400 nM | 30 nM | 190 nM | 400 nM | 2210 nM | 620 nM | 1040 nM | 1200 nM |
| CCC1(c2ccc(CSc3ccc(F)cc3Cl)cc2)Oc2ccccc2-n2cccc2C1=O (single isomer, unassigned; (+)) | – | – | – | – | 200 nM | 510 nM | 140 nM | 10 nM | 90 nM | 150 nM | 120 nM | 90 nM | 510 nM | 140 nM | 20 nM | 200 nM |

Source: ChEMBL document CHEMBL1799949, “Enantioselective binding of second generation pyrrolobenzoxazepinones to the catalytic ternary complex of HIV-1 RT wild-type and L100I and K103N drug resistant mutants” (Bioorg Med Chem Lett, 2011)
